Results taken from article PMC2990605 (British Journal of Cancer, 2010).

What was measured:
[1] = tested on: advanced solid malignancies; assay: Antitumour activity, Response Evaluation Criteria in Solid Tumors; assay type: in vivo, patients; settings: tosedostat with paclitaxel
Procedure: Response was evaluated according to Response Evaluation Criteria in Solid Tumors ([Therasse et al, 2000]) after every second cycle.

[2] = tested on: relapsed/refractory AML; parameters: method as in Ossenkoppele et al, 2009; Reid et al, 2009; settings: tosedostat monotherapy, ref Ossenkoppele et al, 2009, Reid et al; cited from earlier work
[3] = tested on: human promyelocytic leukaemia cell line HL-60; parameters: method as in Krige et al, 2008; settings: ref Krige et al, 2008; cited from earlier work
[4] = tested on: cancer cell lines; parameters: method as in Jenkins et al, 2007; Moore et al, 2009; settings: wide range of cancer cell lines in vitro; ref Jenkins et al, 2007; Moore et al, 2009; cited from earlier work
[5] = tested on: transformed cells; parameters: method as in Krige et al, 2008; settings: in vitro and in vivo experiments; ref Krige et al, 2008; cited from earlier work
[6] = cited from earlier work

CC(C)C[C@@H](C(=O)N[C@H](C(=O)OC1CCCC1)c1ccccc1)[C@H](O)C(=O)NO [tosedostat]
response duration of PR ([1]; patient with malignant melanoma): 7.2 months | response duration of PR ([1]; patient with squamous cell non-small-cell lung cancer): 7.1 months | response duration of PR ([1]; patient with squamous-cell carcinoma of the oesophagus): 1.5 months | stable disease lasting >3 months, patients [1]: 12 | Median (95% CI) duration of s.d. ([1]; 12 patients): 5.6 (3–6.5) months | partial response, patients ([1]; 21 assessable patients): 3 | stable disease, % of patients ([1]; 21 assessable patients): 57% | stable disease, patients ([1]; 21 assessable patients): 12 | partial response, % of patients ([1]; 21 assessable patients, confirmed after ⩾4 weeks): 14% | response rate [2]: 31.4% | gene expression analysis, transcriptional response [3]: transcriptional response to the drug indicative of amino acid depletion | phosphorylation of mTOR substrates [3]: inhibited | protein synthesis [3]: reduced | combination with chemotherapeutic agents, antiproliferative effects [4]: synergises | selectivity [5]: selectivity for transformed over nontransformed cells | effect on platelets ([6]; single agent dose escalation studies, ref Ossenkoppele et al, 2009, Reid et al): platelet suppressive effect | most commonly reported AEs ([6]; single agent oral daily dosing, ref Reid et al, 2009): fatigue, thrombocytopenia, peripheral oedema and diarrhoea | Dose-limiting toxicities, patients ([6]; single agent tosedostat 320 mg, ref Reid et al, 2009): two of four patients | MTD with single agent tosedostat ([6]; solid tumour patients treated for at least 28 days, oral daily, ref Reid et al, 2009): 240 mg
